Test results reported in patent publication US20130131073A1, “FUSED-IMIDAZOYL COMPOUNDS USEFUL AS ANTIMICROBIAL AGENTS” (priority 2010, published 2013).
Converted amounts (≈) assume the structure as drawn.

Tested on: Staphylococcus aureus ATCC29213
Assay: Broth microdilution susceptibility testing (MIC determination)
Format: cell-based
Details: Mueller Hinton broth, overnight incubation at 35° C., lowest concentration preventing visible growth, read-out: MIC Staph. aureus ATCC29213
Protocol: Susceptibility testing (MIC determinations) was performed using the standard broth microdilution methodology precisely as described in the Clinical Laboratory Standards Institute Document M7-A6; Methods for Dilution Antimicrobial Susceptibility Tests for Bacteria That Grow Aerobically; Approved Standard- Sixth Edition (ISBN 1-56238-486-4), CLSI, 940 West Valley Road, Suite 1400, Wayne, Pa. 19087-1898 USA. To perform the test, a series of 0.1 ml media in a 96-well plate is prepared with Mueller Hinton broth to which various concentrations of the test compound are added. The media are then inoculated with a standardized suspension of the test organism, Staphylococcus aureus ATCC29213. After overnight incubation at 35° C., the tests are examined and the minimal inhibitory concentration (MIC) is determined. MIC is defined as the lowest concentration of an antimicrobial agent that prevents visible growth of a microorganism in the broth microdilution susceptibility test

MIC	SMILES
2 µg/mL (≈ 4.14 µM)	Cc1cccc(C)c1N1CCN(C(=O)CNc2c(-c3ccc(N(C)C)cc3)nc3cnccn23)CC1 [compound 26]
10 µg/mL (≈ 19.1 µM)	Cc1cccc(N2CCN(C(=O)CNc3c(-c4ccc(OC(F)(F)F)cc4)nc4cnccn34)CC2)c1C [compound 276]
1.25 µg/mL (≈ 2.51 µM)	O=C(CNc1c(-c2ccc(OC(F)(F)F)cc2)nc2cnccn12)N1CCN(c2ccncc2)CC1 [compound 269]
10 µg/mL (≈ 18.8 µM)	O=C(CNc1c(-c2ccc(OC(F)(F)F)cc2)nc2cnccn12)N1CCN(c2ccccc2Cl)CC1 [compound 270]
10 µg/mL (≈ 23 µM)	CN1CCN(C(=O)CNc2c(-c3ccc(OC(F)(F)F)cc3)nc3cnccn23)CC1 [compound 268]
0.08 µg/mL (≈ 0.152 µM)	CN(C)c1ccc(-c2nc3cnccn3c2NCC(=O)N2CCN(c3c(Cl)cncc3Cl)CC2)cc1 [compound 31]
5 µg/mL (≈ 8.61 µM)	O=C(CNc1c(-c2ccc(OC(F)(F)F)cc2)nc2cnccn12)N1CCN(c2nc(-c3ccccc3)ns2)CC1 [compound 282]
1.25 µg/mL (≈ 2.87 µM)	CC(=O)N1CCN(C(=O)C(C)Nc2c(-c3ccc(N(C)C)cc3)nc3cnccn23)CC1 (centres unmarked) [compound 102]
0.08 µg/mL (≈ 0.141 µM)	O=C(CNc1c(-c2ccc(OC(F)(F)F)cc2)nc2cnccn12)N1CCN(c2c(Cl)cncc2Cl)CC1 [compound 274]

Second part, the compound before the results:

SMILES	MIC
O=C(CNc1c(-c2ccc(OC(F)(F)F)cc2)nc2cnccn12)N1CCN(CCC2CCCCC2)CC1 [compound 277]	2.5 µg/mL (≈ 4.71 µM)
O=C(CNc1c(-c2ccc(OC(F)(F)F)cc2)nc2cnccn12)N1CCN(C(=O)OCc2ccccc2)CC1 [compound 275]	10 µg/mL (≈ 18 µM)
CC(Nc1c(-c2ccc(OC(F)(F)F)cc2)nc2cnccn12)C(=O)N1CCN(C)CC1 (centres unmarked) [compound 184]	5 µg/mL (≈ 11.1 µM)
COCCCN1CCN(C(=O)CNc2c(-c3ccc(OC(F)(F)F)cc3)nc3cnccn23)CC1 [compound 281]	5 µg/mL (≈ 10.2 µM)
C=CCN1CCN(C(=O)C(C)Nc2c(-c3ccc(OC(F)(F)F)cc3)nc3cnccn23)CC1 (centres unmarked) [compound 189]	5 µg/mL (≈ 10.5 µM)
Cc1cccc(N2CCN(C(=O)C(C)Nc3c(-c4ccc(OC(F)(F)F)cc4)nc4cnccn34)CC2C)c1 (centres unmarked) [compound 318]	10 µg/mL (≈ 18.6 µM)
CC(c1ccccc1)N1CCN(C(=O)CNc2c(-c3ccc(OC(F)(F)F)cc3)nc3cnccn23)CC1 (centres unmarked) [compound 295]	10 µg/mL (≈ 19.1 µM)
COc1cc(OC)nc(CN2CCN(C(=O)CNc3c(-c4ccc(OC(F)(F)F)cc4)nc4cnccn34)CC2)n1 [compound 280]	10 µg/mL (≈ 17.5 µM)
